From article PMC8903829 (eLife, 2022)
“And” between values parts separate entries of the source, which are not always exact repeats. Equal entries are not always repeated. “Also recorded” adds a separate entry of the source.

Assays:
[1] = target: T1, mNaV1.6 (Mus musculus, UniProt Q9WTU3); test: Qube 384 automated patch-clamp, inactivated-state inhibition; assay type: cell-based
T1 construct: expression vector containing the full-length cDNA coding for specific human and mouse sodium channel α-subunit; expressed in transfected cells
T1 sequence (Q9WTU3 whole entry): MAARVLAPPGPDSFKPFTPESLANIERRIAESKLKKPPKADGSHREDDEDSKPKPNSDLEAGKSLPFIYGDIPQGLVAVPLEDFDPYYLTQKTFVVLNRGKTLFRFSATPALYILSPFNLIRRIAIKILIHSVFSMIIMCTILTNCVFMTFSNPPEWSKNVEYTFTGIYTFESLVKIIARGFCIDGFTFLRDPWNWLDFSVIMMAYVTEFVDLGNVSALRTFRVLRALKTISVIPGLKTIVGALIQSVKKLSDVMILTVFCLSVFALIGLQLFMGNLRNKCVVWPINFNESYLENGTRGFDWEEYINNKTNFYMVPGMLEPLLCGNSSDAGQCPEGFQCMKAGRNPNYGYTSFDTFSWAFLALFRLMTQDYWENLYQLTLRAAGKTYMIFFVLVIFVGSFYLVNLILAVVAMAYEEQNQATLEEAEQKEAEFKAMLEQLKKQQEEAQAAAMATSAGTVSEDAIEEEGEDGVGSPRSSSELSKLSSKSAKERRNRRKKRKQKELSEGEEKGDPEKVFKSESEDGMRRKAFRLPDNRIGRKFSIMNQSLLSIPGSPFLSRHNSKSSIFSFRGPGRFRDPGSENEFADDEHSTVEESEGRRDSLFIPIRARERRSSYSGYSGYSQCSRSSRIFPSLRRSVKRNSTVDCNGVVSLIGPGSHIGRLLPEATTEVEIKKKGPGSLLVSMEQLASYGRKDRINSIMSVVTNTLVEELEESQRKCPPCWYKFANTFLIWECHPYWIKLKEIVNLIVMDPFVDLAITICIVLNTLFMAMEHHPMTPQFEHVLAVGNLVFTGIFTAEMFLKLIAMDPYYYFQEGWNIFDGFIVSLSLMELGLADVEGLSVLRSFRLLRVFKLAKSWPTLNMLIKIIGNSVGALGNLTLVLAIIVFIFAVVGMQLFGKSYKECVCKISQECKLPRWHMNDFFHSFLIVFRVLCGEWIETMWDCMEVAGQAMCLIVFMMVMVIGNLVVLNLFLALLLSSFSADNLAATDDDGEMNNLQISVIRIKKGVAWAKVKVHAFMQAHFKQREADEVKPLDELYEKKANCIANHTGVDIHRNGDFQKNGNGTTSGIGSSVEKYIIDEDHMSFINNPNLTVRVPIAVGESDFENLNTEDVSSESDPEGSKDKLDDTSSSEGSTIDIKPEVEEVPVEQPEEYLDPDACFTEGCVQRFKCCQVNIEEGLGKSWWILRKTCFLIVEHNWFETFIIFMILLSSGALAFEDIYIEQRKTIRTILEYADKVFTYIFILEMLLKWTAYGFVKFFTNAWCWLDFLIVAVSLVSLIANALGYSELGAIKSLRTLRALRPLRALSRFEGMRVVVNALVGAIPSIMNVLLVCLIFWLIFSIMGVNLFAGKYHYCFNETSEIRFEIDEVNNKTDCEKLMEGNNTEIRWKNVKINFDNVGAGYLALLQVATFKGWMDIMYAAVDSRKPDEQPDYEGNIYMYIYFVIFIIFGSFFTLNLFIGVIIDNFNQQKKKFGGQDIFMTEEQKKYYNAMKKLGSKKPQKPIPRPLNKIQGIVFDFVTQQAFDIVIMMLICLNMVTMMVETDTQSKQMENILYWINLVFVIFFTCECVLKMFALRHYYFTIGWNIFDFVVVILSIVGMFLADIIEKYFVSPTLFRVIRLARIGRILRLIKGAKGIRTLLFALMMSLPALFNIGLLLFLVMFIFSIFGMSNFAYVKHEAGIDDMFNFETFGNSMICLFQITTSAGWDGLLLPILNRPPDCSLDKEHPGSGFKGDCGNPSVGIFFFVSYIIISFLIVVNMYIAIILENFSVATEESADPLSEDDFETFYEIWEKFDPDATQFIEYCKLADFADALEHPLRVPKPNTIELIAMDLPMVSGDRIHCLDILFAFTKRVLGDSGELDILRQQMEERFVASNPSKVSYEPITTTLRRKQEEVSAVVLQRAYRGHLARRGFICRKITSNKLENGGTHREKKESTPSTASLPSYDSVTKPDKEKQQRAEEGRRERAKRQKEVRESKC
T1 sequence (Q92913 1-192 isoform Q92913-2 partner): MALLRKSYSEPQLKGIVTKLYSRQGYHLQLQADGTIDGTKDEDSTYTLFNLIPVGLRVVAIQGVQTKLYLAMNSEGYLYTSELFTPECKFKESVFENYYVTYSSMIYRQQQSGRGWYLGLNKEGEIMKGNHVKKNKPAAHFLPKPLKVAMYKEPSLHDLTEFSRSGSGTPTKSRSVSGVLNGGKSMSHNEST

[2] = target: T2, hNaV1.6(N1768D) resurgent currents (Homo sapiens, UniProt Q9UQD0, N1768D); test: Resurgent current inhibition; assay type: cell-based
T2 construct: expression vector containing the full-length cDNA coding for specific human and mouse sodium channel α-subunit; expressed in transfected cells
T2 sequence (Q9UQD0 whole entry N1768D): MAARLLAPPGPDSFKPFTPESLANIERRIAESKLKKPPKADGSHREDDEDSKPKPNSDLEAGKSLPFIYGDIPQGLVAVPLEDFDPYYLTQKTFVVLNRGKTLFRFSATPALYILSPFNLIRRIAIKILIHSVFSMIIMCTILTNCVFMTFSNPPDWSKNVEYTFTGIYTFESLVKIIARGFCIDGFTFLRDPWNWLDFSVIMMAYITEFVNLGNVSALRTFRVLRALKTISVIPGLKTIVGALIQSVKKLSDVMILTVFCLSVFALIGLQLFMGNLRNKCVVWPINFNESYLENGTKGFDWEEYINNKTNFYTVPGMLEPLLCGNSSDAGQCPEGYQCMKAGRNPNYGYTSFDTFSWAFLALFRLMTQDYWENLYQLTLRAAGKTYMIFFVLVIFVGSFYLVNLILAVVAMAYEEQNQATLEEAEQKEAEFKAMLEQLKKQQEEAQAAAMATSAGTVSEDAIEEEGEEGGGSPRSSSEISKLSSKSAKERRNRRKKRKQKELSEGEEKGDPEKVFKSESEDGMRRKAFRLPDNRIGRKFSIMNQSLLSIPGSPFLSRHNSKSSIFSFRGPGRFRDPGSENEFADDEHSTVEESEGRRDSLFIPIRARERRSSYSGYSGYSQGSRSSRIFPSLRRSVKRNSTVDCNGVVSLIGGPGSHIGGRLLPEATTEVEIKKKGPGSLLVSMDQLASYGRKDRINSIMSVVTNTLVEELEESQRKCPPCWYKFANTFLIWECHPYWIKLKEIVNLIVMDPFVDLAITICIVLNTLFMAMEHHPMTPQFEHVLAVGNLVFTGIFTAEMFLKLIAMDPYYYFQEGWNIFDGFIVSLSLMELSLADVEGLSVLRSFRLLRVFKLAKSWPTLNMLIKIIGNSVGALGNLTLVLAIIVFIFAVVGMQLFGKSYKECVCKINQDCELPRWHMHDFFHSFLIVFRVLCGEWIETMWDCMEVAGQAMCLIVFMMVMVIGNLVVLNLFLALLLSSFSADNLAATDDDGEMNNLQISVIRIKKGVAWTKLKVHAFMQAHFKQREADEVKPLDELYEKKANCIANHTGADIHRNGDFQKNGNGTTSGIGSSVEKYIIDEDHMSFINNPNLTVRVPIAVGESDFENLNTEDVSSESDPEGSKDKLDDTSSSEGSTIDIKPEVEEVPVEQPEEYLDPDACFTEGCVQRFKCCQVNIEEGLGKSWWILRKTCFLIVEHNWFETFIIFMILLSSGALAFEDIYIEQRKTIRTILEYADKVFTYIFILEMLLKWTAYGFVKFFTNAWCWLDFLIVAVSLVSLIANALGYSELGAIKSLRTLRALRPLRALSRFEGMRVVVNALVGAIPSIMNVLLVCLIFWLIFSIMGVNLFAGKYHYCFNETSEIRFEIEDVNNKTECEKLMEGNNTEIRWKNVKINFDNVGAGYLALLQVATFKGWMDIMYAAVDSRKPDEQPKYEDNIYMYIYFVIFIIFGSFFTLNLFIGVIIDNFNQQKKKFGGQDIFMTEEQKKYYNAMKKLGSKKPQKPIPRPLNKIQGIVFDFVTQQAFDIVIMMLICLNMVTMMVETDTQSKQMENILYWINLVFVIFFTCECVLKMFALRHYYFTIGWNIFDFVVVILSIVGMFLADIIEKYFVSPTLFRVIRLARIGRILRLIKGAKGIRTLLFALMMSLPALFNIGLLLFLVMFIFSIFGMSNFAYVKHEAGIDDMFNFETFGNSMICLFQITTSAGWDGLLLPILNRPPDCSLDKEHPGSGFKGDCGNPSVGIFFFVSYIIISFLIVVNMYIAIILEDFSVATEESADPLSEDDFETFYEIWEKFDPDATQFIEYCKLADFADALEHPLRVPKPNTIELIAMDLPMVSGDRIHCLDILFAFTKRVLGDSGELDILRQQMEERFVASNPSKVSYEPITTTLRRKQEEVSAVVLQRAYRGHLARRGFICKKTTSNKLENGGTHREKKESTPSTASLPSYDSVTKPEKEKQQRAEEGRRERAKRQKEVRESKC
T2 sequence (Q92913 1-192 isoform Q92913-2 partner): as the sequence (Q92913 1-192 isoform Q92913-2 partner) above

[3] = test system: fast spiking interneurons; test: Current-clamp recording in brain slices, action-potential firing; assay type: cell-based, mouse; details: for Fast spiking interneurons APs/1s: 0.25 μM, individual neurons; for Cumulative number of action potentials fired by each cell on increasing current injections: 250 nM, fast spiking interneurons
Procedure: Parasagittal cortical brain slices were prepared from> P21 mice using standard procedures (adapted from Tai et al., PNAS 2014). Briefly, the mouse was deeply anaesthetized with isoflurane and decapitated. The brain was removed and placed into chilled artificial cerebrospinal fluid (aCSF) solution containing (in mM): 125 NaCl, 25 NaHCO3, 2.5 KCl, 1.25 NaH2PO4, 2 CaCl2, 2 MgCl2, 10 d-glucose, pH 7.3, osmolarity adjusted to ~306 mOsm using sucrose. All solutions were saturated with 95% O2 and 5% CO2 constantly perfused with 95% O2/5% CO2. Slices with a thickness of 400 µm were prepared using a vibratome (Ted Pella, Inc). Following sectioning, the slices were placed in a holding chamber and incubated in a water bath at 34 °C for 15 min. The brain slices were removed from the water bath and held at room temperature for 60 min prior to recording.
All experiments involving rodent subjects were performed in accordance with the guidelines of the Canadian Council on Animal Care (CCAC). Following a 60-min incubation at room temperature, a brain slice was selected and placed on the stage of an upright microscope (SliceScope Pro 2000, Scientifica). The slice was constantly perfused with room temperature aCSF, containing 0.1% DMSO as a vehicle control, and oxygenated with 95% O2/5% CO2.The slice was visualized using brightfield microscopy, and a healthy neuron was selected from neocortical layer 5. […] Stimulation was applied in current-clamp mode, and consisted of a series of 1000ms square pulses, beginning at –20 pA and increasing by +20 pA increments (3000ms between pulses).
The slice was incubated in circulating compound for 10 min before repeating the series of square pulse stimulations. Working stock solutions were prepared in DMSO at a concentration of 20 mM.
All data analysis was done offline using ClampFit 10.7 (Molecular Devices). Data are presented as a mean ± SEM. For each sweep, the number of evoked APs was counted, and plotted as a function of current injection (beginning with –20 pA). […] Statistical significance was assessed using paired, two-way, student’s t-test applied at each current injection level with significance considered p < 0.05.

[4] = target: hNaV1.4 (Homo sapiens, UniProt P35499); test: Qube 384 automated patch-clamp, inactivated-state inhibition

## Cc1cc(S(=O)(=O)Nc2cscn2)c(F)cc1N(C)[C@H]1CCN(Cc2ccccc2)C1 [NBI-921352]
[1]; -5 Log M
  mNaV1.6 current (352)/(Vehicle): 0.92
[1]; -5.47716 Log M
  mNaV1.6 current (352)/(Vehicle): 0.9
[1]; -5.95429 Log M
  mNaV1.6 current (352)/(Vehicle): 0.84
[1]; -6.91009 Log M
  mNaV1.6 current (352)/(Vehicle): 0.63
[1]; -7.38722 Log M
  mNaV1.6 current (352)/(Vehicle): 0.48
[1]; -7.85387 Log M
  mNaV1.6 current (352)/(Vehicle): 0.27
[1]; -8.30103 Log M
  mNaV1.6 current (352)/(Vehicle): 0.12
[1]; Vh -45 mV
  IC50: 58 nM
[2]; -5 Log M
  N1768D current in (352)/(Vehicle), Resurgent, mean: 0.94
[2]; -5.47716 Log M
  N1768D current in (352)/(Vehicle), Resurgent, mean: 0.88
[2]; -5.95429 Log M
  N1768D current in (352)/(Vehicle), Resurgent, mean: 0.86
[2]; -6.91009 Log M
  N1768D current in (352)/(Vehicle), Resurgent, mean: 0.8
[2]; -7.38722 Log M
  N1768D current in (352)/(Vehicle), Resurgent, mean: 0.57
[2]; -7.85387 Log M
  N1768D current in (352)/(Vehicle), Resurgent, mean: 0.18
[2]; NaVβ4 peptide 200 μM intracellular, read-out: apparent IC50 resurgent currents from N1768D channels
  IC50: 37 nM
[3]; 0.25 µM NBI-921352
  effect on action-potential firing, fast-spiking interneurons: trend toward slightly increased firing frequency; also recorded: no significant effect
[3]; 220 pA current injected
  Fast spiking interneurons APs/1s: 51 APs/1s and 58 APs/1s and 67 APs/1s
[3]; current injected 0 pA
  Fast spiking interneurons APs/1s: 0 APs/1s
[3]; current injected 20 pA
  Fast spiking interneurons APs/1s: 0 APs/1s
[3]; current injected 40 pA
  Fast spiking interneurons APs/1s: 0 APs/1s
[3]; current injected 60 pA, row
  Fast spiking interneurons APs/1s: 0 APs/1s (2×) and 17 APs/1s
[3]; current injected 80 pA, row
  Fast spiking interneurons APs/1s: 0 APs/1s and 1 APs/1s and 25 APs/1s
[3]; current injected 100 pA, row
  Fast spiking interneurons APs/1s: 20 APs/1s and 25 APs/1s and 33 APs/1s
[3]; current injected 120 pA, row
  Fast spiking interneurons APs/1s: 28 APs/1s and 33 APs/1s and 39 APs/1s
[3]; current injected 140 pA, row
  Fast spiking interneurons APs/1s: 34 APs/1s and 40 APs/1s and 45 APs/1s
[3]; current injected 160 pA, row
  Fast spiking interneurons APs/1s: 38 APs/1s and 46 APs/1s and 52 APs/1s
[3]; current injected 180 pA, row
  Fast spiking interneurons APs/1s: 43 APs/1s and 50 APs/1s and 57 APs/1s
[3]; current injected 200 pA, row
  Fast spiking interneurons APs/1s: 47 APs/1s and 55 APs/1s and 62 APs/1s
[3]; current injected 220 pA, row
  Fast spiking interneurons APs/1s: 51 APs/1s and 58 APs/1s and 67 APs/1s
[3]; current injected 240 pA, row
  Fast spiking interneurons APs/1s: 55 APs/1s and 62 APs/1s and 73 APs/1s
[3]; current injected 260 pA, row
  Fast spiking interneurons APs/1s: 58 APs/1s and 65 APs/1s and 77 APs/1s
[3]; current injected 280 pA, row
  Fast spiking interneurons APs/1s: 61 APs/1s and 70 APs/1s and 82 APs/1s
[3]; current injected 300 pA, row
  Fast spiking interneurons APs/1s: 65 APs/1s and 73 APs/1s and 86 APs/1s
[3]; current injected 320 pA, row
  Fast spiking interneurons APs/1s: 68 APs/1s and 76 APs/1s and 89 APs/1s
[3]; current injected 340 pA, row
  Fast spiking interneurons APs/1s: 70 APs/1s and 80 APs/1s and 96 APs/1s
[3]; current injected 360 pA, row
  Fast spiking interneurons APs/1s: 73 APs/1s and 83 APs/1s and 100 APs/1s
[3]; current injected 380 pA, row
  Fast spiking interneurons APs/1s: 74 APs/1s and 83 APs/1s and 100 APs/1s
[3]; current injected 400 pA, row
  Fast spiking interneurons APs/1s: 75 APs/1s and 86 APs/1s and 103 APs/1s
[3]; current injected 420 pA, row
  Fast spiking interneurons APs/1s: 77 APs/1s and 87 APs/1s and 101 APs/1s
[3]; current injected 440 pA, row
  Fast spiking interneurons APs/1s: 77 APs/1s and 88 APs/1s and 103 APs/1s
[3]; current injected -20 pA
  Fast spiking interneurons APs/1s: 0 APs/1s
[3]; up to current injected 0 pA
  Cumulative number of action potentials fired by each cell on increasing current injections: 0
[3]; up to current injected 20 pA
  Cumulative number of action potentials fired by each cell on increasing current injections: 0
[3]; up to current injected 40 pA
  Cumulative number of action potentials fired by each cell on increasing current injections: 0
[3]; up to current injected 140 pA, listed as NBI-921252
  Cumulative number of action potentials fired by each cell on increasing current injections: 82 and 99 and 159
[3]; up to current injected 160 pA, listed as NBI-921252
  Cumulative number of action potentials fired by each cell on increasing current injections: 120 and 145 and 211
[3]; up to current injected 180 pA, listed as NBI-921252
  Cumulative number of action potentials fired by each cell on increasing current injections: 163 and 195 and 268
[3]; up to current injected 200 pA, listed as NBI-921252
  Cumulative number of action potentials fired by each cell on increasing current injections: 210 and 250 and 330
[3]; up to current injected 220 pA, listed as NBI-921252
  Cumulative number of action potentials fired by each cell on increasing current injections: 261 and 308 and 397
[3]; up to current injected 240 pA, listed as NBI-921252
  Cumulative number of action potentials fired by each cell on increasing current injections: 316 and 370 and 470
[3]; up to current injected 260 pA, listed as NBI-921252
  Cumulative number of action potentials fired by each cell on increasing current injections: 374 and 435 and 547
[3]; up to current injected 280 pA, listed as NBI-921252
  Cumulative number of action potentials fired by each cell on increasing current injections: 435 and 505 and 629
[3]; up to current injected 300 pA, listed as NBI-921252
  Cumulative number of action potentials fired by each cell on increasing current injections: 500 and 578 and 715
[3]; up to current injected 320 pA, listed as NBI-921252
  Cumulative number of action potentials fired by each cell on increasing current injections: 568 and 654 and 804
[3]; up to current injected 340 pA, listed as NBI-921252
  Cumulative number of action potentials fired by each cell on increasing current injections: 638 and 734 and 900
[3]; up to current injected 360 pA, listed as NBI-921252
  Cumulative number of action potentials fired by each cell on increasing current injections: 711 and 817 and 1000
[3]; up to current injected 380 pA, listed as NBI-921252
  Cumulative number of action potentials fired by each cell on increasing current injections: 785 and 900 and 1100
[3]; up to current injected 400 pA, listed as NBI-921252
  Cumulative number of action potentials fired by each cell on increasing current injections: 860 and 986 and 1203
[3]; up to current injected 420 pA, listed as NBI-921252
  Cumulative number of action potentials fired by each cell on increasing current injections: 937 and 1073 and 1304
[3]; up to current injected 440 pA, listed as NBI-921252
  Cumulative number of action potentials fired by each cell on increasing current injections: 1014 and 1161 and 1407
[3]; up to current injected -20 pA
  Cumulative number of action potentials fired by each cell on increasing current injections: 0
[4]
  IC50: > 30000 nM
[4]; read-out: inhibition at the highest concentration tested
  inhibition at 30 µM: < 50%
